Results as given in US8314143B2, “Synthetic flavonoids and pharmaceutical compositions and therapeutic methods of treatment of HIV infection and other pathologies” (Florida A&M University, priority 2006, dated 2012).
Where “and” joins values, the source holds several entries; their conditions need not be identical. Equal entries are not always repeated. Where two headings read alike, the source gives them in different places.

What was measured:
Type in all cases: cell-based
[1] = test system: H-9 cells; assay: Cytoxicity on H-9 cells (drug inhibition, cell count); conditions: for H-9 Mean (drug inhibition): Table 4 summary; for % Inhibition Mean / Cells (×10^4) Mean / % Inhibition / Cells (×10^4): Exp. Dec. 05 to Dec. 09, 2005; for % Inhibition / Cells (×10^4): single replicates
Source text: (§1) The purified and identified analogs were subjected to in vitro biological testing. […] These three congeners were further evaluated in H9 and PC3 cells. AZT was employed as a positive control in all of these experiments.

[2] = test system: MCF-7 cells; assay: Cytoxicity on MCF-7 cells (drug inhibition, cell count); design: Drug Inhibition on MCF-7 Cells / MCF-7 Mean (drug inhibition) / Drug inhibition on MCF-7 Cells Mean: unit not given here; conditions: for Drug Inhibition on MCF-7 Cells: Table 8 summary; for inhibition at 1 µg/mL / inhibition at 5 µg/mL / inhibition at 10 µg/mL / inhibition at 50 µg/mL: Homo sapiens, MCF7, MCF-7 cells
Source text: as §1

[3] = test system: PC-3 cells; assay: Cytoxicity on PC-3 cells (drug inhibition, cell count); conditions: for Drug Inhibition on PC-3 cells: Table 7; for % Inhibition Mean / Cells (×10^4) Mean / % Inhibition / Cells (×10^4): Exp. Nov. 11 to Nov. 17, 2005; for % Inhibition / Cells (×10^4): single replicates
Source text: The purified and identified analogs were subjected to in vitro biological testing.

[4] = MCF-7 cells, 1 μg/ml, mean, Exp. Nov. 14 to Nov. 18, 2005
[5] = MCF-7 cells, 1 μg/ml, single replicates, Exp. Nov. 14 to Nov. 18, 2005
[6] = MCF-7 cells, 5 μg/ml, mean, Exp. Nov. 14 to Nov. 18, 2005
[7] = MCF-7 cells, 5 μg/ml, single replicates, Exp. Nov. 14 to Nov. 18, 2005
[8] = MCF-7 cells, 10 μg/ml, mean, Exp. Nov. 14 to Nov. 18, 2005
[9] = MCF-7 cells, 10 μg/ml, single replicates, Exp. Nov. 14 to Nov. 18, 2005
[10] = MCF-7 cells, 50 μg/ml, mean, Exp. Nov. 14 to Nov. 18, 2005
[11] = MCF-7 cells, 50 μg/ml, single replicates, Exp. Nov. 14 to Nov. 18, 2005

In the case of `COc1ccc(C=CC(=O)c2cc(C)cc([N+](=O)[O-])c2O)cc1OC` [CHNM 2M], the “H-9 Mean (drug inhibition)” value ([1]; 1 μg/ml) is reported as −15.75, the “% Inhibition Mean” value ([1]; 1 μg/ml) is reported as −15.75% and the “Cells (×10^4) Mean” value ([1]; 1 μg/ml) is reported as 58.17 ×10^4. The “% Inhibition” value ([1]; 1 μg/ml) was −13.93% and −19.90% and −13.43%, the “Cells (×10^4)” value ([1]; 1 μg/ml) was 57.3 ×10^4 and 60.3 ×10^4 and 57.0 ×10^4 and the “H-9 Mean (drug inhibition)” value ([1]; 5 μg/ml) was −16.58. The “% Inhibition Mean” value ([1]; 5 μg/ml) was −16.58%, the “Cells (×10^4) Mean” value ([1]; 5 μg/ml) was 58.58 ×10^4 and the “% Inhibition” value ([1]; 5 μg/ml) was −22.39% and −10.45% and −16.92%. The “Cells (×10^4)” value ([1]; 5 μg/ml) was 61.5 ×10^4 and 55.5 ×10^4 and 58.8 ×10^4, the “H-9 Mean (drug inhibition)” value ([1]; 10 μg/ml) was −1 and the “% Inhibition Mean” value ([1]; 10 μg/ml) was −1.00%. The “Cells (×10^4) Mean” value ([1]; 10 μg/ml) was 50.75 ×10^4, the “% Inhibition” value ([1]; 10 μg/ml) was −0.50% and −3.98% and 1.49% and the “Cells (×10^4)” value ([1]; 10 μg/ml) was 50.5 ×10^4 and 52.3 ×10^4 and 49.5 ×10^4. The “H-9 Mean (drug inhibition)” value ([1]; 50 μg/ml) was −11.44, the “% Inhibition Mean” value ([1]; 50 μg/ml) was −11.44% and the “Cells (×10^4) Mean” value ([1]; 50 μg/ml) was 56.00 ×10^4. The “% Inhibition” value ([1]; 50 μg/ml) was −12.94% and −8.96% and −12.44%, the “Cells (×10^4)” value ([1]; 50 μg/ml) was 56.8 ×10^4 and 54.8 ×10^4 and 56.5 ×10^4 and the “Drug Inhibition on MCF-7 Cells” value ([2]; MCF-7 cells, 1 μg/ml) was 6.77. The “% Inhibition Mean” value [2, 4] was 6.77%, the “Cells (×10^4) Mean” value [2, 4] was 53.92 ×10^4 and the “% Inhibition” value [2, 5] was 8.36% and 4.47% and 7.49%. For the same compound, the “Cells (×10^4)” value [2, 5] was 53.0 ×10^4 and 55.3 ×10^4 and 53.5 ×10^4, the “Drug Inhibition on MCF-7 Cells” value ([2]; MCF-7 cells, 5 μg/ml) was 20.17 and the “% Inhibition Mean” value [2, 6] was 20.17%. The “Cells (×10^4) Mean” value [2, 6] was 46.17 ×10^4, the “% Inhibition” value [2, 7] was 21.33% and 22.19% and 17.00% and the “Cells (×10^4)” value [2, 7] was 45.5 ×10^4 and 45.0 ×10^4 and 48.0 ×10^4. For the same compound, the “Drug Inhibition on MCF-7 Cells” value ([2]; MCF-7 cells, 10 μg/ml) was 31.27, the “% Inhibition Mean” value [2, 8] was 31.27% and the “Cells (×10^4) Mean” value [2, 8] was 39.75 ×10^4. The “% Inhibition” value [2, 9] was 29.97% and 32.56% and 31.27%, the “Cells (×10^4)” value [2, 9] was 40.5 ×10^4 and 39.0 ×10^4 and 39.8 ×10^4 and the “Drug Inhibition on MCF-7 Cells” value ([2]; MCF-7 cells, 50 μg/ml) was 42.07. The “% Inhibition Mean” value [2, 10] was 42.07%, the “Cells (×10^4) Mean” value [2, 10] was 33.50 ×10^4 and the “% Inhibition” value [2, 11] was 43.80% and 40.35% and 42.07%. For the same compound, the “Cells (×10^4)” value [2, 11] was 32.5 ×10^4 and 34.5 ×10^4 and 33.5 ×10^4, the “Drug Inhibition on PC-3 cells” value ([3]; 1 μg/ml) was 27.9 and the “% Inhibition Mean” value ([3]; 1 μg/ml) was 9.10%. For the same compound, the “Cells (×10^4) Mean” value ([3]; 1 μg/ml) was 89.08 ×10^4, the “% Inhibition” value ([3]; 1 μg/ml) was 9.69% and 17.09% and 0.51% and the “Cells (×10^4)” value ([3]; 1 μg/ml) was 88.5 ×10^4 and 81.3 ×10^4 and 97.5 ×10^4. The “Drug Inhibition on PC-3 cells” value ([3]; 5 μg/ml) was 39.36, the “% Inhibition Mean” value ([3]; 5 μg/ml) was 36.05% and the “Cells (×10^4) Mean” value ([3]; 5 μg/ml) was 62.67 ×10^4. The “% Inhibition” value ([3]; 5 μg/ml) was 39.29% and 36.99% and 31.89%, the “Cells (×10^4)” value ([3]; 5 μg/ml) was 59.5 ×10^4 and 61.8 ×10^4 and 66.8 ×10^4 and the “Drug Inhibition on PC-3 cells” value ([3]; 10 μg/ml) was 45.03. The “% Inhibition Mean” value ([3]; 10 μg/ml) was 35.80%, the “Cells (×10^4) Mean” value ([3]; 10 μg/ml) was 62.92 ×10^4 and the “% Inhibition” value ([3]; 10 μg/ml) was 36.22% and 38.52% and 32.65%. For the same compound, the “Drug Inhibition on PC-3 cells” value ([3]; 50 μg/ml) was 59.67, the “% Inhibition Mean” value ([3]; 50 μg/ml) was 48.81% and the “Cells (×10^4) Mean” value ([3]; 50 μg/ml) was 50.17 ×10^4. For the same compound, the “% Inhibition” value ([3]; 50 μg/ml) was 49.23% and 46.43% and 50.77%.
In the case of `COc1cc(C=CC(=O)c2cc(C)cc([N+](=O)[O-])c2O)cc(OC)c1OC` [CHNM 3M], the “inhibitory activity compared to AZT” value ([1]; same conditions as AZT) is reported as “much superior inhibitory activities”, the inhibition at 1 µg/mL ([2]; drug 1 μg/ml, mean of replicates, vs 2% DMSO, read-out: % Inhibition Mean) is reported as 12.6% and the inhibition at 1 µg/mL ([2]; drug 1 μg/ml, single replicate, vs 2% DMSO, read-out: % Inhibition) is reported as 13.1%. It also gave an inhibition at 5 µg/mL ([2]; drug 5 μg/ml, mean of replicates, vs 2% DMSO, read-out: % Inhibition Mean) of 51.4%, an inhibition at 5 µg/mL ([2]; drug 5 μg/ml, single replicate, vs 2% DMSO, read-out: % Inhibition) of 49.4% and an inhibition at 10 µg/mL ([2]; drug 10 μg/ml, mean of replicates, vs 2% DMSO, read-out: % Inhibition Mean) of 90.3%. It also gave an inhibition at 10 µg/mL ([2]; drug 10 μg/ml, single replicate, vs 2% DMSO, read-out: % Inhibition) of 90.2%, an inhibition at 50 µg/mL ([2]; drug 50 μg/ml, mean of replicates, vs 2% DMSO, read-out: % Inhibition Mean) of 96.6% and an inhibition at 50 µg/mL ([2]; drug 50 μg/ml, single replicate, vs 2% DMSO, read-out: % Inhibition) of 96.6%. The “response to MCF-7 cells in the different drug concentrations” value ([2]; MCF-7 cells) was “good activities”, the “Cells (×10^4) Mean” value ([2]; MCF-7 cells, drug 1 μg/ml, mean of replicates) was 44.50 ×10^4 and the “Cells (×10^4)” value ([2]; MCF-7 cells, drug 1 μg/ml, single replicate count) was 44.3 ×10^4 (2×) and 45.0 ×10^4. For the same compound, the “% Inhibition” value ([2]; MCF-7 cells, drug 1 μg/ml, single replicate, vs 2% DMSO) was 11.62%, the “Cells (×10^4) Mean” value ([2]; MCF-7 cells, drug 5 μg/ml, mean of replicates) was 24.75 ×10^4 and the “Cells (×10^4)” value ([2]; MCF-7 cells, drug 5 μg/ml, single replicate count) was 25.8 ×10^4 and 24.0 ×10^4 and 24.5 ×10^4. For the same compound, the “% Inhibition” value ([2]; MCF-7 cells, drug 5 μg/ml, single replicate, vs 2% DMSO) was 52.86% and 51.88%, the “Cells (×10^4) Mean” value ([2]; MCF-7 cells, drug 10 μg/ml, mean of replicates) was 4.92 ×10^4 and the “Cells (×10^4)” value ([2]; MCF-7 cells, drug 10 μg/ml, single replicate count) was 5.0 ×10^4 (2×) and 4.8 ×10^4. The “% Inhibition” value ([2]; MCF-7 cells, drug 10 μg/ml, single replicate, vs 2% DMSO) was 90.67%, the “Cells (×10^4) Mean” value ([2]; MCF-7 cells, drug 50 μg/ml, mean of replicates) was 1.75 ×10^4 and the “Cells (×10^4)” value ([2]; MCF-7 cells, drug 50 μg/ml, single replicate count) was 1.8 ×10^4 and 2.0 ×10^4 and 1.5 ×10^4. The “% Inhibition” value ([2]; MCF-7 cells, drug 50 μg/ml, single replicate, vs 2% DMSO) was 96.07% and 97.05%, the “inhibitory activity compared to AZT” value ([2]; MCF-7 cells, same conditions as AZT) was “much superior inhibitory activities” and the “inhibitory activity compared to AZT” value ([3]; same conditions as AZT) was “much superior inhibitory activities”.
